The values that follow come from patent US8686115B2, “Compositions and methods for quantitatively monitoring lipids” (The Board of Trustees of the University of Illinois, priority 2009, dated 2014).

The structures appear in SMILES notation. Numbering of substitutions follows the chain as printed.

The target in assay [1] is T1, epsin 1 ENTH domain, wild type, SEQ ID NO: 1 (Homo sapiens, UniProt Q9Y6I3).
T1 construct: The Epsin1 ENTH domain (1-158 amino acids) was subcloned; GST (C, cleaved yes); made in house; host or cells: E. coli BL21 RIL codon plus
T1 sequence (Q9Y6I3 1-158): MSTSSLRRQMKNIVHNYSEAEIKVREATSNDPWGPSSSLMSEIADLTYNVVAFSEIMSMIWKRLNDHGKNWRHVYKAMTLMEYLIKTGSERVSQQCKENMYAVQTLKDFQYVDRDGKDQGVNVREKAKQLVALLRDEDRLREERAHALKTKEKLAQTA
Description: SPR equilibrium binding of epsin1 ENTH domain (wild type) to phosphoinositide-containing LUVs. The text has this:
(§1) The ENTH domain was engineered to introduce a single labeling site (M10C) on the membrane binding surface while removing an endogenous Cys (C96A). We also performed the S4W mutation to suppress its residual affinity for another lipid, phosphatidylinositol-3,4,5-trisphosphate (PtdIns(3,4,5)P3) (PtdIns(4,5)P2/PtdIns(3,4,5)P3=4 for wild type and >10 for the mutant) and to enhance the overall affinity for PtdIns(4,5)P2-containing membranes (ca. 4-fold) (Table 1).
(§2) With respect to FIG. 1, an L1 sensor chip was coated with POPC/POPS/PtdIns(4,5)P2 (77:20:3) LUVs. The proteins were incubated with a given concentration of IP3 for 5 minutes before injecting into the SPR instrument. Kinetic SPR measurements were performed in 20 mM Tris-HCL, pH 7.4, containing 0.16 KCl. […] A lower concentration of DAN-eENTH was used than that of PLCδ PH because the former has much higher affinity that the latter.
The Epsin1 ENTH domain (1-158 amino acids) was subcloned into the pGEX4T-1 vector and expressed as a […] glutathione S-transferase (GST)-tagged protein. The ENTH domain amino acid sequence is as follows:
E. coli BL21 RIL codon plus (Stratagene) cells were used for protein expression. Cells were grown in Luria broth media containing 100 μg/ml of ampicillin at 37° C. 0.1 mM of Isopropyl β-D-1-thiogalactopyranoside was added to induce over-expression of recombinant proteins when the OD600 reached 0.5-0.8 and cells were grown for additional 6 to 10 hours at 25° C. Cells were harvested by centrifugation and cell pellets were resuspended in 50 mM Tris-HCl buffer (pH 7.4) containing 160 mM KCl, 1 mM phenylmethanesulphonylfluoride, and 5 mM of dithiothreitol (DTT). Cells were lysed by sonication and the lysate was collected by centrifugation at 4° C. The GST-affinity resin (GenScript) for GST-tagged proteins or nickel-nitrilotriacetic acid resin (Qiagen, Valencia, Calif.) for His6-tagged proteins was added into the cell lysate and the mixture was gently shaken for 30 minutes at 4° C. The mixture was applied to a column and the column was washed once with 50 mM Tris-HCl buffer (pH 7.4) containing 160 mM KCl and 5 mM of DTT to reduce thiol group, and washed several times with the same buffer without DTT to remove DTT. For DAN labeling, 100 μg of acrylodan was added to the column at this stage and incubated 16 hours at 4° C. The excess acrylodan was removed by washing the column with the buffer several times. […] Purity and the concentration of the recombinant proteins were determined by sodium dodecylsulfate-polyacrylamide gel electrophoresis and bicinchoninic acid assay, respectively. The DAN labeling yield of eENTH, which was calculated as the molar ratio of DAN (determined spectrophotometrically at 391 nm using its extinction coefficient of 20,000 cm^−1 M^−1) to protein, was typically 60-70%. […]

In assay [2] the target is T2, epsin 1 ENTH domain (SEQ ID NO: 1) variant C96A (Homo sapiens, UniProt Q9Y6I3, C96A).
T2 construct: The Epsin1 ENTH domain (1-158 amino acids) was subcloned; GST (C, cleaved yes); made in house; host or cells: E. coli BL21 RIL codon plus
T2 sequence (Q9Y6I3 1-158 C96A): T1 sequence (Q9Y6I3 1-158) with C96A
The assay is described as follows: SPR equilibrium binding of epsin1 ENTH C96A to phosphoinositide-containing LUVs. To be noted: POPC/POPS/PtdIns(4,5)P2 (77:20:3) LUVs, 20 mM Tris-HCl pH 7.4, 0.16 M KCl, read-out: Kd for PtdIns(4,5)P2.
Source text: as §1, §2
All mutations (S4W, M10C, and C96A) were performed by polymerase chain reaction mutagenesis and verified by DNA sequencing. eENTH may comprise the following sequence:
E. coli BL21 RIL codon plus (Stratagene) cells were used for protein expression. Cells were grown in Luria broth media containing 100 μg/ml of ampicillin at 37° C. 0.1 mM of Isopropyl β-D-1-thiogalactopyranoside was added to induce over-expression of recombinant proteins when the OD600 reached 0.5-0.8 and cells were grown for additional 6 to 10 hours at 25° C. Cells were harvested by centrifugation and cell pellets were resuspended in 50 mM Tris-HCl buffer (pH 7.4) containing 160 mM KCl, 1 mM phenylmethanesulphonylfluoride, and 5 mM of dithiothreitol (DTT). Cells were lysed by sonication and the lysate was collected by centrifugation at 4° C. […] Purity and the concentration of the recombinant proteins were determined by sodium dodecylsulfate-polyacrylamide gel electrophoresis and bicinchoninic acid assay, respectively. The DAN labeling yield of eENTH, which was calculated as the molar ratio of DAN (determined spectrophotometrically at 391 nm using its extinction coefficient of 20,000 cm^−1 M^−1) to protein, was typically 60-70%. […]

Assay [3] addresses T3, epsin 1 ENTH domain (SEQ ID NO: 1) variant C96A/S4W (eENTH; SEQ ID NO: 2) (Homo sapiens, UniProt Q9Y6I3, C96A/M10C/S4W).
T3 construct: The Epsin1 ENTH domain (1-158 amino acids) was subcloned; GST (C, cleaved yes); made in house; host or cells: E. coli BL21 RIL codon plus
T3 sequence (Q9Y6I3 1-158 S4W/M10C/C96A): T1 sequence (Q9Y6I3 1-158) with S4W, M10C, C96A
Description: SPR equilibrium binding of epsin1 ENTH C96A/S4W (eENTH) to phosphoinositide-containing LUVs. The following applies: S4W mutant.
Source text: as §1
(§3) With respect to FIG. 1, an L1 sensor chip was coated with POPC/POPS/PtdIns(4,5)P2 (77:20:3) LUVs. The proteins were incubated with a given concentration of IP3 for 5 minutes before injecting into the SPR instrument. Kinetic SPR measurements were performed in 20 mM Tris-HCL, pH 7.4, containing 0.16 KCl. […] A lower concentration of DAN-eENTH was used than that of PLCδ PH because the former has much higher affinity that the latter. […]
(§4) E. coli BL21 RIL codon plus (Stratagene) cells were used for protein expression. […] Purity and the concentration of the recombinant proteins were determined by sodium dodecylsulfate-polyacrylamide gel electrophoresis and bicinchoninic acid assay, respectively. The DAN labeling yield of eENTH, which was calculated as the molar ratio of DAN (determined spectrophotometrically at 391 nm using its extinction coefficient of 20,000 cm^−1 M^−1) to protein, was typically 60-70%. […]

In assay [4] the test system is epsin 1 ENTH domain (SEQ ID NO: 1) variant C96A/S4W (eENTH; SEQ ID NO: 2). The description is as above. To be noted: S4W mutation, Table 1.
Source text: as §1, §3, §4

The target of another assay is T4, PLCδ-PH (PLCδ PH domain) (Homo sapiens, UniProt P51178).
T4 sequence (P51178 21-130 limits assumed): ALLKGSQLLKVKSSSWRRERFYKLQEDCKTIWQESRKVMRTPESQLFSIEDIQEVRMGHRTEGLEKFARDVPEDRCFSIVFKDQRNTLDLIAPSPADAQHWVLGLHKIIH
The assay is described as follows: SPR equilibrium binding of PLCδ-PH to phosphoinositide-containing LUVs. To be noted: POPC/POPS/PtdIns(4,5)P2 (77:20:3) LUVs, 20 mM Tris-HCl pH 7.4, 0.16 M KCl, read-out: Kd for PtdIns(4,5)P2. The protocol:
With respect to FIG. […] The proteins were incubated with a given concentration of IP3 for 5 minutes before injecting into the SPR instrument. Kinetic SPR measurements were performed in 20 mM Tris-HCL, pH 7.4, containing 0.16 KCl. […] A lower concentration of DAN-eENTH was used than that of PLCδ PH because the former has much higher affinity that the latter.
LUVs were prepared by extrusion using a 100 nm-pore membrane. GUVs were prepared by electroformation. The lipid mixture were prepared in chloroform/methanol (3:1) at a total concentration of 0.4 mg/ml, then the lipid solution was spread onto the indium-tin oxide electrode surface and the lipid was dried under vacuum to form a uniform lipid film. Vesicles were grown in a sucrose solution (350 mM) while an electric field (3V, 20 Hz frequency) was applied for 5 hour at room temperature. After 1 to […] of sucrose-loaded GUV solution was added into a well glued onto a coverslip that was placed on the microscope stage. The well contained […] of 20 mM Tris-HCl buffer, pH 7.4, with 0.16 M KCl solution. The diameter of GUVs ranged from 5 to 30 μm.

In general, Kd refers to a measure of binding affinity in units of concentration. As for `CCCCCCCCCCCCCCCC(=O)OC[C@H](COP(=O)(O)O[C@@H]1[C@H](O)[C@H](O)[C@@H](OP(=O)(O)O)[C@H](OP(=O)(O)O)[C@H]1O)OC(=O)CCCCCCCCCCCCCCC` [PtdIns(4,5)P2, phosphatidylinositol-4,5-bisphosphate], the Kd in assay [1] (SPR, POPC/POPS/PtdIns(4,5)P2 (77:20:3) LUVs, 20 mM Tris-HCl pH 7.4, 0.16 M KCl, read-out: Kd for PtdIns(4,5)P2) came out at 50 nM; in assay [2], 53 nM; at PLCδ-PH (PLCδ PH domain) it was 180 nM. In addition, the figures for the “PtdIns(4,5)P2/PtdIns(3,4,5)P3 selectivity” value in assay [1] (wild type) and in assay [3] were 4 and over 10, respectively. The “enhancement of overall affinity for PtdIns(4,5)P2-containing membranes” value in assay [4] was “ca. 4 fold”.
